Results on 19 compounds are retold here after ChEMBL document CHEMBL6092213, “Rational Exploration of 2,4-Diaminopyrimidines as DHFR Inhibitors Active against Mycobacterium abscessus and Mycobacterium avium, Two Emerging Human Pathogens” (J Med Chem, 2024).

The nature of data set [1]: Metabolic stability in mouse hepatocytes assessed as intrinsic clearance at 0.5 uM measured upto 120 mins in presence of NADPH by UPLC-MS/MS analysis. Type of data set: ADME, cell-based, Hepatocyte. Conditions: 2 h.
The nature of data set [2]: Metabolic stability in human liver microsomes assessed as intrinsic clearance at 0.5 uM measured upto 30 mins in presence of NADPH by UPLC-MS/MS analysis. Format: ADME, Microsome. Particulars: 0.5 h.
Data set [3] is described as follows: Half-life in mouse. Particulars: in vivo. Type of data set: ADME, organism-based.
Data set [4] is described as follows: Volume of distribution in mouse. Conditions: in vivo. Type of data set: ADME, organism-based.
A short description of data set [5]: Inhibition of Mycobacterium avium DHFR using 7, 8 dihydrofolate as substrate incubated for 1 hr by plate reader assay.
Data set [6] deals with T1, Dihydrofolate reductase (Homo sapiens, UniProt P00374).
T1 sequence (P00374 whole entry): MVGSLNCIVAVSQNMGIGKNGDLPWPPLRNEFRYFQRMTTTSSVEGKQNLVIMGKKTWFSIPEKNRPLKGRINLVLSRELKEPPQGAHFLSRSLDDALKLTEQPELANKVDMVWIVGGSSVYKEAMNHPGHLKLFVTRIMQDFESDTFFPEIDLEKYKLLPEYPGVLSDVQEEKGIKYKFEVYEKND
Put plainly: Inhibition of human DHFR using 7, 8 dihydrofolate as substrate incubated for 1 hr by plate reader assay. Type of data set: toxicity.

Data set [7] relates to Mycobacteroides abscessus. The data set is described as follows: Antibacterial activity against Mycobacterium abscessus ATCC 19977 incubated for 2 days by resazurin microtiter assay. Type of data set: functional. Particulars: ATCC 19977, 48 h, time 2 day.
A short description of data set [8]: Inhibition of Mycobacterium abscessus DHFR using 7, 8 dihydrofolate as substrate incubated for 1 hr by plate reader assay. Details: species or system Mycobacteroides abscessus.
Data set [9] in a line: Metabolic stability in human hepatocytes assessed as intrinsic clearance at 0.5 uM measured upto 120 mins in presence of NADPH by UPLC-MS/MS analysis. Conditions: 2 h. Format: ADME, cell-based, Hepatocyte.
Data set [10] can be described thus: Solubility of compound in PBS at pH 7.4 incubated for 24 hrs by UPLC analysis. Particulars: for solubility: buffer, pH 7.4, 24 h. Format: physicochemical.
Data set [11] can be described thus: Apparent permeability in MDCK-II cells incubated for 1 hr by LC-MS/MS method. Conditions: dog. Type of data set: ADME, cell-based, Canis lupus familiaris.
Data set [12] can be described thus: Clearance in mouse. Format: ADME, organism-based. Conditions: in vivo.
Data set [13] can be described thus: Unbound fraction in mouse plasma. Format: ADME, cell-free.
A short description of data set [14]: Tmax in BALB/c mouse at 3 mg/kg, po measured upto 24 hrs by UPLC/MS-MS analysis. Type of data set: ADME, organism-based. Particulars: in vivo.
The nature of data set [15]: Observed clearance in BALB/c mouse at 1 mg/kg, iv measured upto 24 hrs by UPLC/MS-MS analysis. Format: ADME, organism-based. Particulars: in vivo.
A short description of data set [16]: AUClast in BALB/c mouse at 3 mg/kg, po measured upto 24 hrs by UPLC/MS-MS analysis. Type of data set: ADME, organism-based. Conditions: in vivo.
A short description of data set [17]: AUCinfinity in BALB/c mouse at 1 mg/kg, iv measured upto 24 hrs by UPLC/MS-MS analysis. Type of data set: ADME, organism-based. Conditions: in vivo.
Data set [18] in a line: Extrapolated AUC in BALB/c mouse at 1 mg/kg, iv measured upto 24 hrs by UPLC/MS-MS analysis. Format: ADME, organism-based. Conditions: in vivo.
The nature of data set [19]: Oral bioavailability in BALB/c mouse at 3 mg/kg measured upto 24 hrs by UPLC/MS-MS analysis. Format: ADME, organism-based. Conditions: in vivo.
A short description of data set [20]: AUClast in BALB/c mouse at 1 mg/kg, iv measured upto 24 hrs by UPLC/MS-MS analysis. Format: ADME, organism-based. Particulars: in vivo.
Data set [21] is described as follows: Half-life in BALB/c mouse at 1 mg/kg, iv measured upto 24 hrs by UPLC/MS-MS analysis. Particulars: in vivo. Format: ADME, organism-based.
In data set [22] the test system is HepG2. Put plainly: Cytotoxicity against human HepG2 cells assessed as viable cells at 100 uM incubated for 72 hrs by resazurin dye based plate reader assay. Format: toxicity, cell-based. Conditions: hepg2, 72 h.
The nature of data set [23]: Cmax in BALB/c mouse at 3 mg/kg, po measured upto 24 hrs by UPLC/MS-MS analysis. Conditions: in vivo. Format: ADME, organism-based.
Data set [24] can be described thus: Lipophilicity, logP of compound. Particulars: octanol/water. Format: physicochemical.
Data set [25] can be described thus: Observed volume of distribution at steady state in BALB/c mouse at 1 mg/kg, iv measured upto 24 hrs by UPLC/MS-MS analysis. Particulars: in vivo. Format: ADME, organism-based.

The structures appear in SMILES notation. Converted amounts (≈) assume the structure as drawn.

Consider `CCc1nc(N)nc(N)c1OCCCOc1ccccc1CCC(=O)O`, for which the CLH in data set [1] was under 0.76 mL/min/g. Besides, the results for the intrinsic clearance in data set [2] and in [9] were under 0.4 mL/min/g and under 0.66 mL/min/g, respectively. This compound also returned a half-life in data set [3] of 39 min. In [4], this compound yielded a Vd of 2.5 L/kg. For the same compound, the IC50 in [5] worked out at 4.3 nM; in data set [6] it was 120 nM; in data set [8], 0.8 nM. Also, in data set [7], the MIC is 10.1 µg/mL (≈ 28 µM). Moreover, in data set [10], the solubility stood at 233 µM (≈ 84 µg/mL). The apparent permeability coefficient (Papp) in [11] stood at 3 ×10⁻⁶ cm/s. Also, the clearance in data set [12] was 43.6 mL/min/kg.
With `COc1nc(N)nc(N)c1OCCCOc1ccccc1CCC(=O)O`, the 50% inhibitory concentration (IC50) in data set [5], in [6] and in data set [8] was over 5000 nM throughout.
For `Nc1nc(N)c(OCCCOc2ccccc2CCC(=O)O)c(-c2ccncc2)n1`, the IC50 in [5] was 17 nM; in data set [6], over 5000 nM; in data set [8] it was 77 nM. In data set [7], this compound came in with an MIC of 0.6 µg/mL (≈ 1.47 µM).
Regarding `CCCCOc1nc(N)nc(N)c1OCCCOc1ccccc1CCC(=O)O`, the half-inhibitory concentration (IC50) in data set [5], in data set [6] and in data set [8] was over 5000 nM each time.
As for `CCCOc1nc(N)nc(N)c1OCCCOc1ccccc1CCC(=O)O`, the IC50 in data set [5], in [6] and in data set [8] was over 5000 nM in each case.
Regarding `COc1ccccc1-c1nc(N)nc(N)c1OCCCOc1ccccc1CCC(=O)O`, the IC50 in data set [5] was 210 nM; in [6] it was over 5000 nM; in data set [8], 210 nM.
For the compound `CCCCCc1nc(N)nc(N)c1OCCCOc1ccccc1CCC(=O)O`, the half-maximal inhibitory concentration (IC50) turned out to be 4.5 nM in data set [5], 430 nM in data set [6] and 8.3 nM in [8]. In data set [7], this compound yielded a minimum inhibitory concentration (MIC) of 0.6 µg/mL (≈ 1.49 µM).
The matching figures for `NCCCc1nc(N)nc(N)c1OCCCOc1ccccc1CCC(=O)O`: 240 nM, over 5000 nM, 45 nM and 12.9 µg/mL (≈ 33.1 µM).
As for `Nc1ncc(OCCCOc2ccccc2CCC(=O)O)c(N)n1`, the IC50 is 220 nM in data set [5], 9700 nM in [6] and 990 nM in [8].
Regarding `COc1cccc(-c2nc(N)nc(N)c2OCCCOc2ccccc2CCC(=O)O)c1`, the IC50 in [5] was 60 nM; in data set [6], over 5000 nM; in data set [8] it was 13 nM. For the same compound, in data set [7], the MIC was determined as 5.6 µg/mL (≈ 12.8 µM).
Consider `Nc1nc(N)c(OCCCOc2ccccc2CCC(=O)O)c(CCCCO)n1`, for which the CLH in data set [1] is under 0.76 mL/min/g. Besides, the intrinsic clearance in [2] is under 0.4 mL/min/g; in data set [9], under 0.66 mL/min/g. Also, the 50% inhibitory concentration (IC50) in [5] worked out at 5 nM; in data set [6] it was 460 nM; in [8], 4.9 nM. In data set [7], the MIC was 0.1 µg/mL (≈ 0.247 µM). Besides, in data set [10], the solubility stood at 227 µM (≈ 91.8 µg/mL). Also, in data set [11], the apparent permeability (Papp) was determined as 0.8 ×10⁻⁶ cm/s.
On to `Nc1nc(N)c(OCCCOc2ccccc2CCC(=O)O)c(C2CCNCC2)n1`, for which the concentration for half-maximal inhibition (IC50) is 63 nM in [5], over 5000 nM in [6] and 30 nM in data set [8]. Moreover, the MIC in data set [7] was determined as 6.2 µg/mL (≈ 14.9 µM).
With `CCCc1nc(N)nc(N)c1OCCCOc1ccccc1CCC(=O)O`, the IC50 in [5] worked out at 3.8 nM; in data set [6], 7.2 nM; in data set [8] it was 0.86 nM.
As to `Nc1nc(N)c(OCCCOc2ccccc2CCC(=O)O)c(-c2ccccc2)n1`, in [1], the CLH is 2.2 mL/min/g. Also, the intrinsic clearance in data set [2] is 0.43 mL/min/g; in [9], under 0.66 mL/min/g. In addition, the half-maximal inhibitory concentration (IC50) was 7 nM in data set [5], over 5000 nM in data set [6] and 17 nM in [8]. In data set [7], the MIC is 0.3 µg/mL (≈ 0.734 µM). In data set [10] (PBS, pH 7.4), this compound came in with a solubility at 24 h of 52 µM (≈ 21.2 µg/mL). For the same compound, in data set [11], the Papp was found to be 5.4 ×10⁻⁶ cm/s.
On to `Nc1nc(N)c(OCCCOc2ccccc2CCC(=O)O)c(-c2ccccc2C(F)(F)F)n1`, for which the concentration for half-maximal inhibition (IC50) in data set [5] was 28 nM; in data set [6], over 5000 nM; in data set [8] it was 42 nM. The same compound gave an MIC in [7] of 3.6 µg/mL (≈ 7.56 µM).
Turning to `Nc1nc(N)c(OCCCOc2ccccc2CCC(=O)O)c(C2CCCCC2)n1`, in data set [1], the CLH was found to be 2.2 mL/min/g. The Fu in data set [13] was ~ 0.02. In data set [14], the Tmax was 30 min. For the same compound, the intrinsic clearance was 0.54 mL/min/g in data set [2] and under 0.66 mL/min/g in data set [9]. Also, the clearance in data set [15] was 23 mL/min/kg. Further, the AUClast in data set [16] turned out to be 49232 ng·min/mL; in data set [20] it was 40507 ng·min/mL. The compound further showed an AUC in data set [17] of 42750 ng·min/mL. Further, the IC50 in [5] was 6.3 nM; in [6], 2100 nM; in [8] it was 1.1 nM. Also, the “%AUCextra” value in data set [18] is 5%. This compound returned an MIC in data set [7] of 0.1 µg/mL (≈ 0.241 µM). Moreover, the F in [19] amounted to 41%. This compound showed a solubility in data set [10] of 43 µM (≈ 17.8 µg/mL). Moreover, the Papp in data set [11] is 3.2 ×10⁻⁶ cm/s. Also, in [21], the t1/2 was 30 min. Besides, the Activity in data set [22] is over 60%. Besides, the Cmax in [23] worked out at 279 ng/mL. The log partition coefficient (logP) in data set [24] came to 3.6. In addition, in data set [25], the distribution volume (Vdss) came to 0.9 L/kg.
For the compound `Nc1nc(N)c(OCCCOc2ccccc2CCC(=O)O)c(-c2cccc(C(F)(F)F)c2)n1`, the figures for the IC50 in [5], in data set [6] and in [8] were 1900 nM, over 5000 nM and 320 nM, respectively.
`COc1ccc(-c2nc(N)nc(N)c2OCCCOc2ccccc2CCC(=O)O)cc1`: the CLH in data set [1] was 0.59 mL/min/g. In addition, the intrinsic clearance in data set [2] was under 0.4 mL/min/g; in data set [9] it was under 0.66 mL/min/g. Besides, the IC50 in [5] turned out to be 5.2 nM; in data set [6], 700 nM; in data set [8], 17 nM. The minimal inhibitory concentration (MIC) in [7] was 0.2 µg/mL (≈ 0.456 µM). The compound further came in with a solubility in data set [10] of 67 µM (≈ 29.4 µg/mL). The Papp in [11] turned out to be 4.1 ×10⁻⁶ cm/s.
`NCC[C@H](O)C(=O)N[C@@H]1C[C@H](N)[C@@H](O[C@H]2O[C@H](CN)[C@@H](O)[C@H](O)[C@H]2O)[C@H](O)[C@H]1O[C@H]1O[C@H](CO)[C@@H](O)[C@H](N)[C@H]1O` [AMIKACIN] showed an MIC in data set [7] of 1.7 µg/mL (≈ 2.9 µM).
